Test results published in US20080317723A1, “LYMPHATIC ENDOTHELIAL CELLS MATERIALS AND METHODS” (VEGENICS LIMITED, priority 2001, published 2008).

Legend:
Assay type in all cases: cell-based, human
[1] = tested on: VEGFR-2/EpoR; assay: Ba/F3 bioassay, viability (MTT) of VEGFR-2/EpoR cells; conditions: FIG. 1B
Description: FIG. 1A-FIG. 1C. Analysis of the receptor-specificities of different VEGFs using the Ba/F3 bioassay. Measurement of the viability of Ba/F3 cells expressing the chimeric receptors VEGFR-1/EpoR (FIG. 1A), VEGFR-2/EpoR (FIG. 1B) or VEGFR-3/EpoR (FIG. 1C) in the presence of different VEGFs at indicated concentrations. Cell viability was determined using the MTT assay. Data represent the mean values from triplicate assays (mean±s.d.). FIG. 1D-FIG. 1G. Biosensor analysis of the interaction of VEGF-C (FIG. 1D, FIG. 1E) and VEGF-C156S (FIG. 1F, FIG. 1G) with VEGFR-3 (FIG. 1D, FIG. 1F) and VEGFR-2 (FIG. 1E, FIG. 1G). Chimeric receptor proteins were immobilized onto a carboxymethylated dextran surface. Growth factors were injected over the surface at a flow rate of 20 μl/min at the indicated concentrations. The sensorgrams shown have been subtracted with the corresponding signal obtained when the same sample was passed over a blank control channel.
Bioassay for VEGFR stimulation. […]
VEGF is an endothelial cell mitogen which has been also shown to protect endothelial cells from starvation and TNF-a induced apoptosis via activation of VEGFR-2 (Gerber et al, J. Biol. Chem., 273:30336-30343, 1998; Spyridopoulos et al., J. Mol. Cell. Cardiol., 29:1321-1330, 1997). […] The specificities of the growth factors used were determined using a cell survival bioassay. […]

[2] = tested on: p42/p44 MAPK; assay: p42/p44 MAPK Thr202/Tyr204 phosphorylation in HMVE cells, Western blot
Description: Western blot analysis. Endothelial cells were cultured on 35 mm dishes to near confluence, starved for 24 h in serum free medium and stimulated as indicated. Wortmannin ([…]), LY294002 ([…]), PD98059 (10-25 μM) or GF109203X (2.5-5 μM) were added 1-3 h before stimulation, where indicated. DMSO, into which the inhibitors were dissolved, was used as a control. After the stimulation, the cells were lysed in lysis buffer (50 mM HEPES, pH 7.5, 150 mM NaCl, 10 mM EDTA, 100 mM NaF, 1% TritonX-100 supplemented with 2 mM Na3VO4, 0.5 mM PMSF, 100 U/ml approtinin and 10 μg/ml leupeptin). Clarified lysates were separated by SDS-PAGE, transferred to nitrocellulose and immunoblotted using the phosphospecific antibodies for Akt-Ser473, Akt-Thr308, p42/44 MAPK-Thr202/Tyr204 or CREB-Ser133. The bound antibodies were detected using horseradish peroxidase conjugated secondary antibodies and enhanced chemiluminescence detection system. The blots were stripped and reprobed with antibodies against Akt, MAPK or CREB for quantification by reading the optical densities of the signals with Multi-Analyst 2.0.1 program (Bio-Rad).
The p42/p44 MAPK activation was detected by Western blotting using phospho-Thr202/Tyr204-MAPK specific antibodies and CREB phosphorylation using phospho-Ser133 specific antibodies. The growth factor concentrations used were: VEGF 10 ng/ml, VEGF-C 100 ng/ml and VEGF-C156S 500 ng/ml. […] Effects of inhibition of protein kinase C by GF109203X, MEK1 by PD98059 and PI-3 kinase by LY294002 on p42/p44 MAPK Thr202/Tyr204 phosphorylation, CREB Ser133 phosphorylation and Akt Ser473 phosphorylation in HMVE cells. The growth factor concentrations used were: VEGF 1 ng/ml, VEGF-C 10 ng/ml and VEGF-C156S 500 ng/ml

[3] = tested on: HMVE cells; assay: Serum starvation-induced apoptosis, cytoplasmic histone-associated DNA fragments (ELISA), non-sorted HMVE cells; conditions: non-sorted microvascular endothelial cells, serum-free 24 h, FIG. 2A
Text: FIG. 2A-FIG. 2B. VEGFR-2 and VEGFR-3, but not VEGFR-1 activating ligands inhibit apoptosis of serum-deprived HMVE cells. Measurement of the cytoplasmic histone-associated DNA fragments (mono- and oligonucleosomes) in serum-starved HMVE cells consisting of two cell populations of blood vascular and lymphatic endothelial cells (FIG. 2A) or in the isolated cell populations after magnetic cell sorting using VEGFR-3 antibodies (FIG. 2B). The enrichment factor of cytoplasmic oligonucleosomes in the apoptotic cells grown for 24 h in serum-free medium (BSA) was chosen as 100 (%). Data represent mean values from three independent experiments (mean±s.d.). […] Analysis of endothelial cell apoptosis. For the apoptosis assay, 70,000 cells per well were seeded into 24-well plates. Treatments were done in duplicates and apoptosis was detected by measuring cytoplasmic histone-associated DNA fragments using the death detection ELISA PLUS kit (Roche, Indianapolis, Ind.). […] Annexin-V-FLUOS (Roche, Indianapolis, Ind.) was used to detect phosphatidylserine on the apoptotic cells by fluorescence microscopy according to the instructions of the manufacturer. The simultaneous staining with propidium iodide (1 μg/ml) was used for discriminating possible necrotic cells.

| Molecule | survival of VEGFR-2/EpoR expressing cells [1] | duration of MAPK activation, in words [2] | p42/p44 MAPK activation (phosphorylation) [2] | protection from starvation induced DNA degradation (cytoplasmic histone-associated DNA fragments) [3] |
| --- | --- | --- | --- | --- |
| VEGF | able to support the survival of the VEGFR-2/EpoR expressing cells | more transient than that induced by VEGF-C | significantly stronger | able to protect microvascular endothelial cells from starvation induced DNA degradation |
| VEGF-C156S: VEGFR-3 specific mutant form of VEGF-C, cysteine 156 changed into serine; recombinant human (Thr103 to Ile225) (protein, UniProt P49767 103-225, looked up, variant C156S) TEETIKFAAAHYNTEILKSIDNEWRKTQCMPREVCIDVGKEFGVATNTFFKPPSVSVYRCGGCCNSEGLQCMNTSTSYLSKTLFEITVPLSQGPKPVTISFANHTSCRCMSKLDVYRQVHSII | did not affect the survival of these cells | – | MAPK activation in HMVE cells was detected | able to protect microvascular endothelial cells from starvation induced DNA degradation |
